Columns and labels:
[1] = tested on: caterpillars of the army worm (Spodoptera frugiperda); assay: Spodoptera frugiperda test; format: in vivo; conditions: 1000 ppm, after 7 days, cabbage leaves dipped
Excerpt: Spodoptera frugiperda Test

[2] = tested on: Boophilus microplus resistant (SP-resistant Parkhurst strain); assay: Test with Boophilus microplus resistant (SP-resistant Parkhurst strain/II), injection; format: in vivo; conditions: injected into the abdomen, after 7 days; for kill (no oviposition of fertile eggs): 20 μg per animal
Protocol: Test with Boophilus microplus Resistant (SP-resistant Parkhurst Strain/II)
20 mg of active compound are dissolved in 1 ml of dimethyl sulphoxide, more dilute concentrations are prepared by dilution in the same solvent.
The test is carried out in 5 replications. 1 μl of the solutions is injected into the abdomen, and the animals are transferred into dishes and kept in a climatized room. After 7 days, the activity is checked by examination for oviposition of fertile eggs. Eggs whose fertility is not visible from the outside are stored in glass tubes in a controlled-environment cabinet until the larvae have hatched. An activity of 100% means that no tick has produced any fertile eggs.

[3] = tested on: adults of Ctenocephalides felis; assay: Test with cat fleas/oral uptake; format: in vivo; conditions: 100 ppm in citrated cattle blood, after 28 h
Protocol: Test with Cat Fleas/Oral Uptake
15 μl of this formulation are added to 3 ml of citrated cattle blood and stirred.
10 unfed adult fleas (Ctenocephalides felis, strain “Georgi”) are placed into a chamber (Ø 3.2 cm) whose top and bottom are closed with gauze. A metal cylinder whose underside is covered with parafilm is placed onto the chamber. […] Whereas the blood is warmed to 37° C., the temperature in the area of the flea chambers is adjusted to 25° C. Controls are mixed with the same volume of DMSO, without addition of a compound. The determinations are carried out in triplicate.
After 28 h, the mortality in % (=dead fleas) is determined.

[4] = tested on: larvae of the mustard beetle (Phaedon cochleariae); assay: Phaedon larvae test; conditions: 1000 ppm, after 7 days, cabbage leaves dipped
[5] = tested on: Trichinella spiralis larvae; assay: Trichinella spiralis in-vitro; design: key: 0 means no activity; 1 means weak activity; 2 means good activity; 3 means full activity; conditions: 100 ppm, 5 days at 19° C.
Protocol: Trichinella spiralis In-vitro
Trichinella spiralis larvae are isolated from skeletal muscles and subcutaneous muscles of SPF/CFW1 mice and collected in aqueous 0.9% NaCl containing 20 μg of sisomycin/ml. Per determination, 20 larvae are incubated in 2 ml of a nutrient solution (20 g of Bacto Casitone/l, 10 g of yeast extract/l, 5 g of glucose/l, 0.8 g of KH2PO4/l, 0.8 g of K2HPO4; […] of sisomycin/ml and 1 μg of Canesten/ml; pH=7.2).
The incubation and the determination have been described in Martin et al., Pesticide Science (1996) 48, 343-349. 10 mg of the test compound are dissolved in 0.5 ml of the stated solvent, and such an amount of the resulting solution is added to the incubation medium that the desired concentration is reached. The controls contain only the solvent.
After an incubation time of 5 days at a temperature of 19° C., the experiment is terminated. The anthelmintic activity of a substance is categorized into 4 stages. 0 means no activity, 1 means weak activity, 2 means good activity and 3 means full activity (<50%, 50-75%, >75%, 100% of the larvae dead).

[6] = tested on: greenhouse red spider mite (Tetranychus urticae); assay: Tetranychus test (OP-resistant/dip treatment); format: in vivo; conditions: 0.1%, after 7 days, bean plants dipped
Excerpt: Tetranychus Test (OP-resistant/Dip Treatment)

[7] = logP determination by HPLC (EEC Directive 79/831 Annex V.A8); format: physicochemical
Meloidogyne incognita = assay: Meloidogyne test; format: in vivo; conditions: 20 ppm, after 14 days, lettuce
Protocol: Containers are filled with sand, solution of active compound, Meloidogyne incognita egg/larvae suspension and lettuce seeds. The lettuce seeds germinate and the plants develop. On the roots, galls are formed.
After the desired period of time, the nematicidal action is determined in % using gall formation as a measure. 100% means that no galls were found; 0% means that the number of galls on the treated plants corresponds to that of the untreated control.

[8] = tested on: peach aphid (Myzus persicae); assay: Myzus test; format: in vivo; conditions: 10 ppm, after 6 days, Vicia faba seedlings dipped
[9] = tested on: Boophilus microplus resistant (SP-resistant Parkhurst strain); assay: Test with Boophilus microplus resistant (SP-resistant Parkhurst strain/I), dip; format: in vivo; conditions: 100 ppm, adult females dipped for 1 minute
Protocol: Test with Boophilus microplus Resistant (SP-resistant Parkhurst Strain/I)
(§1) 20 mg of active compound are dissolved in 1 ml of dimethyl sulphoxide, more dilute concentrations are prepared by dilution with distilled water.
10 adult Boophilus microplus res. are dipped for 1 minute into the preparation of active compound to be tested. The animals are transferred into plastic beakers and kept in a climatized room, and the kill rate is then determined.

[10] = tested on: Blatella germanica or Periplaneta americana; assay: Cockroach test; format: in vivo; conditions: 100 ppm, dipped for 1 minute, after 7 days
Protocol: 20 mg of active compound are dissolved in 1 ml of dimethyl sulphoxide, more dilute concentrations are prepared by dilution with distilled H2O.
4 test animals are dipped for 1 minute into the preparation of active compound to be tested.
The test animals are transferred into plastic beakers and kept in a climatized room for 7 days, after which the kill rate is determined.

Lucilia cuprina larvae = assay: Blowfly larvae test/development-inhibitory action; format: in vivo; conditions: 100 ppm
Protocol: Blowfly Larvae Test/Development-inhibitory Action
as §1
About 20 Lucilia cuprina larvae are introduced into a test tube which contains about 1 cm^3 of horse meat and 0.5 ml of the preparation of active compound to be tested. After 24 hours and 48 hours, the efficacy of the preparation of active compound is determined. The test tubes are transferred into a beaker whose bottom is covered with sand. After a further 2 days, the test tubes are removed and the pupae are counted.
The efficacy of the preparation of active compound is assessed by the number of flies that have hatched after 1.5 times the period of development of an untreated control. 100% means that no flies have hatched; 0% means that all flies have hatched normally.

[11] = pH2, HPLC gradient method, acetonitrile/0.1% aqueous phosphoric acid, Table 1

FC(F)=C(F)CCCCSc1nnc(-c2ccc(C(F)(F)F)cc2)o1 [Example 1, 2-(6,6,5-trifluorohex-5-enylthio)-5-(4-trifluoromethyl-phenyl)-1,3,4-oxadiazole]
melting point: 40 °C | kill [1]: 100%

FC(F)=CCCCCSc1nnc(-c2ccc(C(F)(F)F)cc2)o1 [Example 2]
kill (no oviposition of fertile eggs) [2]: 100% | kill (mortality) [3]: 93% | kill [4]: 100% | anthelmintic activity class (larvae dead) [5]: no activity | kill [6]: 98% | logP (pH2) [7, 11]: 4.77 | nematicidal action (gall formation) (Meloidogyne incognita): 100% | kill [8]: 95%

CSc1nnc(SCCCCC(F)=C(F)F)s1 [Example 5]
kill (no oviposition of fertile eggs) [2]: 100% | logP (pH2) ([7]; pH 2): 3.69 | nematicidal action (gall formation) (Meloidogyne incognita): 100%

CSc1nnc(SCCCCC=C(F)F)s1 [Example 6]
activity (no oviposition of fertile eggs) ([2]; 0.8 μg per animal): 100% | activity (no oviposition of fertile eggs) ([2]; 4 μg per animal): 100% | kill (no oviposition of fertile eggs) [2]: 100% | kill [9]: 100% | kill (mortality) [3]: 81% | kill [4]: 100% | kill [6]: 98% | kill [10]: 75% | logP (pH2) ([7]; pH 2): 3.79 | kill [8]: 95%

C[S+]([O-])c1nnc(SCCCCC(F)=C(F)F)s1 (stereo not drawn) [Example 9]
logP (pH2) ([7]; pH 2): 2.46

FC(F)=CCCCCSc1nnc(C(F)(F)F)s1 [Example 10]
activity (no oviposition of fertile eggs) ([2]; 0.8 μg per animal): 100% | activity (no oviposition of fertile eggs) ([2]; 4 μg per animal): 100% | kill (no oviposition of fertile eggs) [2]: 100% | kill [9]: 100% | kill (mortality) [3]: 87% | anthelmintic activity class (larvae dead) [5]: no activity | kill [10]: 100% | logP (pH2) [7, 11]: 4.32 | kill [1]: 100% | kill [8]: 100%

FC(F)=C(F)CCCCSc1nnc(C(F)(F)F)s1 [Example 11]
kill [4]: 100% | logP (pH2) [7, 11]: 4.21

CC(C)CCSc1nnc(SCCCCC=C(F)F)s1 [Example 12]
activity (no oviposition of fertile eggs) ([2]; 0.8 μg per animal): 100% | activity (no oviposition of fertile eggs) ([2]; 4 μg per animal): 100% | kill (no oviposition of fertile eggs) [2]: 100% | kill [9]: 100% | kill (mortality) [3]: 94% | kill [4]: 100% | anthelmintic activity class (larvae dead) [5]: no activity | kill [6]: 98% | logP (pH2) ([7]; pH 2): 5.68 | kill (no flies hatched) (Lucilia cuprina larvae): 100% | nematicidal action (gall formation) (Meloidogyne incognita): 100%

CC(C)CCSc1nnc(SCCCCC(F)=C(F)F)s1 [Example 13]
logP (pH2) [7, 11]: 5.53 | nematicidal action (gall formation) (Meloidogyne incognita): 100%

FC(F)=C(F)CCCCSc1nnc(-c2cc(Cl)nc(Cl)c2)o1 [Example 16]
logP (pH2) ([7]; pH 2): 4.55

FC(F)=C(F)CCCCSc1nnc(SCCCCC(F)=C(F)F)s1 [Example 21]
activity (no oviposition of fertile eggs) ([2]; 0.8 μg per animal): 100% | activity (no oviposition of fertile eggs) ([2]; 4 μg per animal): 100% | kill (no oviposition of fertile eggs) [2]: 100% | anthelmintic activity class (larvae dead) [5]: no activity | logP (pH2) ([7]; pH 2): 5.27

CCOc1nnc(SCCCCC(F)=C(F)F)s1 [Example 24]
logP (pH2) ([7]; pH 2): 3.80

CC(C)Oc1nnc(SCCCCC(F)=C(F)F)s1 [Example 25]
logP (pH2) ([7]; pH 2): 4.24

FC(F)=C(F)CCCCSc1nnc(SCCC(F)=C(F)F)s1 [Example 27]
logP (pH2) ([7]; pH 2): 4.71

FC(F)=CCCCCSc1nnc(SCCC(F)=C(F)F)s1 [Example 28]
logP (pH2) ([7]; pH 2): 4.84

FC(F)=C(F)CCCCSc1nnc(SC(F)F)s1 [Example 29]
logP (pH2) ([7]; pH 2): 3.82

FC(F)=CCCCCSc1nnc(SC(F)F)s1 [Example 30]
logP (pH2) ([7]; pH 2): 3.91

FC(F)=CCCCCSC1=NCCCS1 [IB-1]
logP (pH2) ([7]; pH 2): 1.48

FC(F)=C(F)CCCCSC1=NCCCS1 [IB-2]
logP (pH2) ([7]; pH 2): 1.51

— US6908937B2, “Heterocyclic fluoroalkenyl thioethers (II)” (Bayer Cropscience AG, priority 2000, dated 2005)
